Test results: paper PMC4931022, “Arginine demethylation is catalysed by a subset of JmjC histone lysine demethylases” (Nature Communications, 2016)

Experiments:
Assay type in all cases: biochemical
KDM3A [1] = target: T1, KDM3A (Homo sapiens, UniProt Q9Y4C1); experiment: Formaldehyde dehydrogenase-coupled demethylation assay, KDM3A; settings: for kcat / Km: KDM3A catalytic domain, apparent, preliminary, 37 °C, mean±s.e.m., n=3; for kcat: FDH/NAD+-coupled assay; for Km: FDH/NAD+-coupled formaldehyde assay, 2OG 200 μM, Fe(II) 10 μM, ascorbate 100 μM, fluorescence 355/460 nm; for kcat/KM: KDM3A, calculated from the average kcat and KM values, μM^−1 s^−1 for this quantity
T1 construct: KDM3A515–1,317; His6 (N); made in house; host or cells: Sf9 cells
T1 sequence (Q9Y4C1 515-1317 limits assumed): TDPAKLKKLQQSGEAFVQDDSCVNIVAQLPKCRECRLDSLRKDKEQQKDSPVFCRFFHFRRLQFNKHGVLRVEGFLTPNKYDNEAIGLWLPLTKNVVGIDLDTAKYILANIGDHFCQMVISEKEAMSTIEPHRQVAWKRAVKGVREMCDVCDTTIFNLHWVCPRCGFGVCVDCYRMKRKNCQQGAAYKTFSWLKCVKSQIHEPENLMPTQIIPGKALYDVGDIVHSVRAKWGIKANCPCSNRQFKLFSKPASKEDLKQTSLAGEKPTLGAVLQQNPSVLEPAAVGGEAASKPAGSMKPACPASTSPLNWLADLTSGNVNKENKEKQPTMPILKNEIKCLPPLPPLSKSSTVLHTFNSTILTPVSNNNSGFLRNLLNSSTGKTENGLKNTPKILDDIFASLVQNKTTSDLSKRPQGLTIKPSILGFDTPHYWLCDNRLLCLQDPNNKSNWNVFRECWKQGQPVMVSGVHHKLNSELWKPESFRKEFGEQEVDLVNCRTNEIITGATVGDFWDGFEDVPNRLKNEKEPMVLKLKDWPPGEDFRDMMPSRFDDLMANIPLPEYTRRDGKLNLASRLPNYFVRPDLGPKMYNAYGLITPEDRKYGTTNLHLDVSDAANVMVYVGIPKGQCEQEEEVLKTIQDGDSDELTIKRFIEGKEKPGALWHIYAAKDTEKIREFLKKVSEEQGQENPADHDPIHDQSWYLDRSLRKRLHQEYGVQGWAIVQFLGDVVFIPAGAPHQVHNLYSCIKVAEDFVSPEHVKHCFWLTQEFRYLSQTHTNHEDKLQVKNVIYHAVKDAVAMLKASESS
Experimental: (§1) Formaldehyde dehydrogenase-coupled assays. Preliminary kinetic parameters were determined by detection of the formaldehyde by-product of the demethylation reaction using a FDH (formaldehyde dehydrogenase-coupled)/NAD^+-coupled assay as previously described. Assays were carried out in buffer (enzyme-dependent) with the addition of Fe(II) ammonium sulfate (10 μM), sodium ascorbate (100 μM), 2OG (200 μM), NAD^+ (500 μM), enzyme (0.2–4 μM) and FDH enzyme (0.025 U per assay, Sigma-Aldrich; total volume 30 μl) and were conducted at 37 °C in clear-bottom black 384-well plates. […] The Km and Vmax values were calculated from the reaction rate during the linear phase of formaldehyde production, as determined by the slope of the fluorescence signal recorded.

KDM4E [2] = target: T2, KDM4E (Homo sapiens, UniProt B2RXH2); experiment: Formaldehyde dehydrogenase-coupled demethylation assay, KDM4E; settings: for Km: FDH/NAD+-coupled formaldehyde assay, 2OG 200 μM, Fe(II) 10 μM, ascorbate 100 μM
T2 construct: His6 (N); made in house; host or cells: Escherichia coli
T2 sequence (B2RXH2 1-337): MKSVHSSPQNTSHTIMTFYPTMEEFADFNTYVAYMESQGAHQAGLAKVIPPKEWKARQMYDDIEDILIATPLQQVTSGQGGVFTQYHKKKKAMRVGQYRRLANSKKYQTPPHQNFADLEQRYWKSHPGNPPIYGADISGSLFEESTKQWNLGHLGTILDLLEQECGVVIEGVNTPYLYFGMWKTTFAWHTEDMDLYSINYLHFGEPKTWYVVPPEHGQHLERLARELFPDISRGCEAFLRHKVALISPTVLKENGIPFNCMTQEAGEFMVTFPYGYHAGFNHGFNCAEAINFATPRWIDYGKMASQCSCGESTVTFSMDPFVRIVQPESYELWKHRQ
Experimental: as §1

KDM5C [3] = target: T3, KDM5C (Homo sapiens, UniProt P41229); experiment: MALDI MS activity assay, recombinant KDM5C catalytic domain; settings: peptide 10 μM, 1 h, 37 °C, MALDI-TOF MS; for observed arginine demethylation activity: KDM5C 2 μM, 2OG 100 μM, ascorbate 100 μM, Fe(II) 10 μM, 50 mM HEPES pH 7.5, −14 Da shift; for demethylation, in words: KDM5C catalytic domain 2 μM
T3 construct: KDM5C1–765 was produced as an N-terminally His6-tagged protein in Sf9 cells; His6 (N); made in house; host or cells: Sf9 cells (provided by the Structural Genomics Consortium)
T3 sequence (P41229 1-765): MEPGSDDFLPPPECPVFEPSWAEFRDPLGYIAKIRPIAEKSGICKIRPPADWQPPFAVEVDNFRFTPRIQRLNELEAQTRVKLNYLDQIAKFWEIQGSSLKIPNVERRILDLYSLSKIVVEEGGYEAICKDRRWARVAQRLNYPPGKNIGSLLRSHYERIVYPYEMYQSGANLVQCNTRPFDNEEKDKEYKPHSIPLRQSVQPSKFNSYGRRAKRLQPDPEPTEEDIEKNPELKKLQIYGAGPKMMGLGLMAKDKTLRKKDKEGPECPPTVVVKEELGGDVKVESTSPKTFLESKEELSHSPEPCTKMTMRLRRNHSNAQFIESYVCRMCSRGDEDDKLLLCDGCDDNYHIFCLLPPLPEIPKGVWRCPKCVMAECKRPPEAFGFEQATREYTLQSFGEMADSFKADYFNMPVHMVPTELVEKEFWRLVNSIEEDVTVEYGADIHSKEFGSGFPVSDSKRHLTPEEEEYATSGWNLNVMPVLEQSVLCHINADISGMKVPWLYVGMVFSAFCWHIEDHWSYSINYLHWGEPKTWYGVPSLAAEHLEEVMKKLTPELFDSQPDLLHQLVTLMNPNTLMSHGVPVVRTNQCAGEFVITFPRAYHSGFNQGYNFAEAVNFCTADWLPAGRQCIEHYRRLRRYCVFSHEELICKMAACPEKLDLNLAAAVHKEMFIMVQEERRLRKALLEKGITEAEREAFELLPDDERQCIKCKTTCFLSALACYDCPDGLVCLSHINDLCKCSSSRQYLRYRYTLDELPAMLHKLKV
Experimental: (§2) MALDI MS activity assays. Recombinant proteins (2 μM) were incubated with peptides (10 μM, sequences are given in Supplementary Table 1) and cofactors/substrates for 1 h at 37 °C, unless otherwise specified. Reactions were quenched with 1:1 (v/v) methanol and analysed with MALDI MS. Assay conditions for each enzyme are given in Supplementary Table 2. Negative controls without enzyme were included.
(§3) Supplementary Table 2 Assay conditions with truncated recombinant protein. […]

KDM6B = target: T4, KDM6B (Homo sapiens, UniProt O15054); experiment: MALDI MS activity assay, recombinant KDM6B catalytic domain; settings: KDM6B 2 μM, peptide 10 μM, 1 h, 37 °C, 2OG 100 μM, ascorbate 100 μM, Fe(II) 10 μM, 50 mM HEPES pH 7.5, 150 mM NaCl; MALDI-TOF MS, −14 Da shift
T4 construct: His6 (N); made in house; host or cells: Escherichia coli
T4 sequence (O15054 1141-1590 limits assumed): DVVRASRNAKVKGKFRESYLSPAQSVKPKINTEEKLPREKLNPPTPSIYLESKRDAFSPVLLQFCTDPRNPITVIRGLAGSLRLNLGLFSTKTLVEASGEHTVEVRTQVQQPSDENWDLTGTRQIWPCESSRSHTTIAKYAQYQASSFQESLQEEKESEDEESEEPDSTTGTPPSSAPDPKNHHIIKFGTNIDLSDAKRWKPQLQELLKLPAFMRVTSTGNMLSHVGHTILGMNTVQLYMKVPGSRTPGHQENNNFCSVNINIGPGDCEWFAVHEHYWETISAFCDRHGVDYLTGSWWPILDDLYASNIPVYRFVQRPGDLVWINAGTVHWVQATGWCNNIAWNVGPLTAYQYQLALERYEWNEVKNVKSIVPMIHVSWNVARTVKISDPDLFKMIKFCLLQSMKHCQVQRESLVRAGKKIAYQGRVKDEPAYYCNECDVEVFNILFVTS
Experimental: as §2
(§4) Supplementary Table 2 Assay conditions with truncated recombinant protein.
(§5) Supplementary Table 3 Assay conditions with full length Flag-tagged KDMs.

KDM4E [4] = target: T2, KDM4E; experiment: MALDI MS activity assay, recombinant KDM4E catalytic domain; settings: peptide 10 μM, 1 h, 37 °C, MALDI-TOF MS; for observed arginine demethylation activity: KDM4E 2 μM, 2OG 200 μM, ascorbate 100 μM, Fe(II) 10 μM, 50 mM HEPES pH 7.5, −14 Da shift; for demethylation, in words: KDM4E catalytic domain 2 μM
Experimental: as §2, §3

KDM3A [5] = target: T1, KDM3A; experiment: MALDI MS activity assay, recombinant KDM3A catalytic domain; settings: KDM3A 2 μM, peptide 10 μM, 1 h, 37 °C, 2OG 100 μM, ascorbate 100 μM, Fe(II) 50 μM, 50 mM HEPES pH 7.5; MALDI-TOF MS, −14 Da shift
Experimental: as §2, §4, §5

KDM5C [6] = target: T3, KDM5C; experiment: Formaldehyde dehydrogenase-coupled demethylation assay, KDM5C; settings: for kcat / Km: KDM5C catalytic domain, apparent, preliminary, 37 °C, mean±s.e.m., n=3; for kcat: FDH/NAD+-coupled assay; for Km: FDH/NAD+-coupled formaldehyde assay, 2OG 200 μM, Fe(II) 10 μM, ascorbate 100 μM; for kcat/KM: KDM5C, calculated from the average kcat and KM values, μM^−1 s^−1 for this quantity
Experimental: as §1

[7] = KDM4E catalytic domain, apparent, preliminary, FDH/NAD+-coupled assay, 37 °C, mean±s.e.m., n=3
[8] = KDM4E catalytic domain, apparent, preliminary, 37 °C, mean±s.e.m., n=3
[9] = KDM4E, calculated from the average kcat and KM values, μM^−1 s^−1 for this quantity

“ARTKQTAR-Rme2a-STGGKA (ARTKQTARRSTGGKA; asymmetric dimethylarginine at 9; C-terminal amide) [H3(1-15)K9Rme2a, histone H3 fragment with asymmetric dimethylarginine replacing methylated K9]” was tested, and the kcat (KDM3A [1]) was 5.0±0.6 × 10^−3 s^−1, the Km (KDM3A [1]) was 11.6 ± 1.4 µM and the kcat/KM (KDM3A [1]) was 430.7 × 10^−6. The kcat/KM (KDM4E [2]; KDM4E) was 7.04e-05 µM⁻¹ s⁻¹, the kcat (KDM4E [2]; [7]) was 4.6±0.7 × 10^−3 s^−1 and the Km (KDM4E [2]; [8]) was 66 ± 5 µM. The kcat/KM (KDM4E [2]; [9]) was 70.4 × 10^−6.

With “KQLATKAA-Rme-KSAPAT [H3 (18–32) R26me, 'natural' histone H3 peptide monomethylated at R26]” the “observed arginine demethylation activity” value (KDM5C [3]) was “−”, the “observed arginine demethylation activity” value (KDM6B) was “−” and the “observed arginine demethylation activity” value (KDM4E [4]) was “+”. The “observed arginine demethylation activity” value (KDM3A [5]) was “−”.

With “ARTKQTAR-Rme2s-STGGKA (ARTKQTARRSTGGKA; symmetric dimethylarginine at 9; C-terminal amide) [H3(1-15)K9Rme2s, histone H3 fragment with symmetric dimethylarginine replacing methylated K9]” the kcat (KDM3A [1]) was 3.0±0.3 × 10^−3 s^−1, the Km (KDM3A [1]) was 23.7 ± 1.9 µM and the kcat/KM (KDM3A [1]) was 126.5 × 10^−6. For the same substance, the kcat/KM (KDM4E [2]; KDM4E) was 8.59e-05 µM⁻¹ s⁻¹, the kcat (KDM4E [2]; [7]) was 8.7±0.3 × 10^−3 s^−1 and the Km (KDM4E [2]; [8]) was 101 ± 11 µM. The kcat/KM (KDM4E [2]; [9]) was 85.9 × 10^−6.

With “STGGKAP-Rme-KQLATKA [H3 (10–24) R17me, 'natural' histone H3 peptide monomethylated at R17]” the “observed arginine demethylation activity” value (KDM5C [3]) was “−”, the “observed arginine demethylation activity” value (KDM6B) was “−” and the “observed arginine demethylation activity” value (KDM4E [4]) was “−”. For the same substance, the “observed arginine demethylation activity” value (KDM3A [5]) was “−”.

For “KQLATKAA-Rme2a-KSAPAT [H3 (18–32) R26me2a, 'natural' histone H3 peptide asymmetrically dimethylated at R26]”, the “observed arginine demethylation activity” value (KDM5C [3]) was “−”, the “observed arginine demethylation activity” value (KDM6B) was “−” and the “observed arginine demethylation activity” value (KDM4E [4]) was “+”. The “observed arginine demethylation activity” value (KDM3A [5]) was “−”.

For SG-Rme2a-GKGGKGLGKGGAK [H4R3me2a], the “demethylation, in words” value (KDM5C [3]) was “low levels of demethylation” and the “demethylation, in words” value (KDM4E [4]) was “low levels of demethylation”.

For “ART-Rme2a-QTARKSTGGKA [H3(1-15)K4Rme2a, histone H3 fragment with asymmetric dimethylarginine replacing methylated K4]”, the kcat (KDM5C [6]) was 41.2±3.5 × 10^−3 s^−1, the Km (KDM5C [6]) was 29 ± 0.5 µM and the kcat/KM (KDM5C [6]) was 1,420.0 × 10^−6.

“A-Kme3-TKQTARKSTGGKA [H3R2Kme3, histone H3 peptide with trimethyllysine substituted for R2]” was tested, and the “demethylation, in words” value (KDM5C [3]) was “not observed to be a KDM substrate”, the “demethylation, in words” value (KDM5C [3]; listed as H3(1–15)R2Kme3) was “no demethylation activity” and the “demethylation, in words” value (KDM4E [4]) was “not observed to be a KDM substrate”. For the same substance, the “demethylation, in words” value (KDM4E [4]; listed as H3(1–15)R2Kme3) was “no demethylation activity”.

In the case of “ARTKQTAR-Rme-STGGKA (ARTKQTARRSTGGKA; monomethylarginine at 9; C-terminal amide) [H3(1-15)K9Rme, histone H3 fragment with monomethylarginine replacing methylated K9]”, the kcat (KDM3A [1]) is reported as 11.0±1.2 × 10^−3 s^−1, the Km (KDM3A [1]) is reported as 12.1 ± 3.1 µM and the kcat/KM (KDM3A [1]) is reported as 907.6 × 10^−6. For the same substance, the kcat (KDM4E [2]; [7]) was 2.7±0.2 × 10^−3 s^−1, the Km (KDM4E [2]; [8]) was 169 ± 35.9 µM and the kcat (KDM4E [2]; KDM4E, FDH-coupled assay) was 0.0027 ± 0.0002 s⁻¹. For the same substance, the kcat/KM (KDM4E [2]; [9]) was 15.9 × 10^−6.

With “ART-Kme3-QTARKSTGGKA [H3(1-15)K4me3, recognized histone H3 N-methylated-lysine peptide substrate for KDM5C, reference compound]” the kcat (KDM5C [6]) was 67.1±10.3 × 10^−3 s^−1, the Km (KDM5C [6]) was 7.6 ± 2.9 µM and the kcat/KM (KDM5C [6]) was 8,800 × 10^−6.

“ART-Rme2s-QTARKSTGGKA [H3(1-15)K4Rme2s, histone H3 fragment with symmetric dimethylarginine replacing methylated K4]” was tested, and the kcat (KDM5C [6]) was 4.6±0.7 × 10^−3 s^−1, the Km (KDM5C [6]) was 21.1 ± 5.8 µM and the kcat/KM (KDM5C [6]) was 219.0 × 10^−6.
